Read-outs that look alike come from different tables or passages of the source.
Legend:
androgen receptor [1] = target: T1, androgen receptor (Homo sapiens, UniProt P10275); assay: competition radioligand binding with [3H]R1881 (LNCaP cell lysate); parameters: gene AR; AR in LNCaP cell lysates
Target sequence in this assay (P10275 whole entry): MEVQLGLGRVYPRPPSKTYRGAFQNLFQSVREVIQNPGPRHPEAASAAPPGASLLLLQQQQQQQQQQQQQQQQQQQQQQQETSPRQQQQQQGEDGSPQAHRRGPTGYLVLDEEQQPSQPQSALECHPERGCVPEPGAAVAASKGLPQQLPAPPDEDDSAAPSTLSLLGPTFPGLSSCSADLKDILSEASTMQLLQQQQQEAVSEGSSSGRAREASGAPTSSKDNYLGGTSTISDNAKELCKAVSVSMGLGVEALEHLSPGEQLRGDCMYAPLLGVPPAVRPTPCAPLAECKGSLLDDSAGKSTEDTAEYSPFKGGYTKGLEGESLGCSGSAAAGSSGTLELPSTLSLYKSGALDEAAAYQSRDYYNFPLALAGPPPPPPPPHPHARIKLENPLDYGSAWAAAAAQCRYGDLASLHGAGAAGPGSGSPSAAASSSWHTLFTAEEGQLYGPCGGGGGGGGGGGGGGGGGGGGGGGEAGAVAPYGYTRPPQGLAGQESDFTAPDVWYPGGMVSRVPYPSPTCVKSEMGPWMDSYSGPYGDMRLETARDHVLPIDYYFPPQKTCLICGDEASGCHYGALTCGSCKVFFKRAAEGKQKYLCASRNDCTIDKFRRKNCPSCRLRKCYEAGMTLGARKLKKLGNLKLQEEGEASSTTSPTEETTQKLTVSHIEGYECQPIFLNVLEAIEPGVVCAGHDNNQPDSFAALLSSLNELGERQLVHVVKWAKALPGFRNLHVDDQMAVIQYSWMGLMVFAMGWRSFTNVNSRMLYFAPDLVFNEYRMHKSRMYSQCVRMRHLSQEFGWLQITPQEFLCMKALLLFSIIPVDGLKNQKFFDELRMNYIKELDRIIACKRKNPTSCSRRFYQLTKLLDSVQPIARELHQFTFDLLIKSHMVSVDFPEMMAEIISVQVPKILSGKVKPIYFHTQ

androgen receptor [2] = target: T1, androgen receptor; assay: PROTAC degradation of AR in VCaP cells, western blot (Dmax); assay type: cell-based; parameters: gene AR; endogenous AR in VCaP cells; with VHL
Target sequence in this assay (P40337 whole entry): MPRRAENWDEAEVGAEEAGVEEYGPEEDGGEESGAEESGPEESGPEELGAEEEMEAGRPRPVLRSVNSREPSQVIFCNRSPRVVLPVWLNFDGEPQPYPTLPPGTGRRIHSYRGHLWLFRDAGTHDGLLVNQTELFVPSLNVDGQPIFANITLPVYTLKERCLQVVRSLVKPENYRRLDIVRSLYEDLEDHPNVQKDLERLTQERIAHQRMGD
Target sequence in this assay (P10275 whole entry): as the sequence (P10275 whole entry) above

von Hippel-Lindau (VHL) = target: T2, von Hippel-Lindau (VHL) (Homo sapiens, UniProt P40337); assay: AR degradation lost on VHL knockdown and with the non-VHL-binding epimer; assay type: cell-based
T2 construct: endogenous VHL in VCaP cells; with androgen receptor

androgen receptor [3] = target: T1, androgen receptor; parameters: gene AR
Target sequence in this assay (P10275 whole entry): as above

androgen receptor [4] = target: T1, androgen receptor; assay: degradation of AR in VCaP cells, western blot (DC50; Dmax […]); assay type: cell-based; parameters: gene AR; endogenous AR in VCaP cells
Target sequence in this assay (P10275 whole entry): as above

T2 sequence (P10275 whole entry): as above
T2 sequence (P40337 whole entry): as the sequence (P40337 whole entry) above

## Cc1ncsc1-c1ccc(CNC(=O)[C@@H]2C[C@H](O)CN2C(=O)[C@@H](NC(=O)COCCCCOc2ccc(-c3ccc(N4C(=S)N(c5ccc(C#N)c(C(F)(F)F)c5)C(=O)C4(C)C)cc3)cc2)C(C)(C)C)cc1 (mixture of isomers) [compound 3, epimer]
Androgen receptor [1]
  IC50: 41 nM

## Cc1ncsc1-c1ccc(CNC(=O)[C@@H]2C[C@@H](O)CN2C(=O)[C@@H](NC(=O)COCCOCCOCCOc2ccc(N3C(=S)N(c4ccc(C#N)c(C(F)(F)F)c4)C(=O)C3(C)C)cc2)C(C)(C)C)cc1 [2a]
Androgen receptor [2]
  Dmax: 47%

## Cc1ncsc1-c1ccc(CNC(=O)[C@@H]2C[C@@H](O)CN2C(=O)[C@@H](NC(=O)COCCCCOc2ccc(-c3ccc(N4C(=S)N(c5ccc(C#N)c(C(F)(F)F)c5)C(=O)C4(C)C)cc3)cc2)C(C)(C)C)cc1 [2c, ARCC-4]
Androgen receptor [1]; read-out: IC50
  IC50: 36 nM
Von Hippel-Lindau (VHL)
  AR degradation lost on VHL knockdown and with the non-VHL-binding epimer: confirmed that ARCC-4-mediated AR degradation is dependent upon VHL recruitment and binding

## C[C@]1(O)CC[C@H]2[C@@H]3CCC4=CC(=O)CCC4=C3C=C[C@@]21C [R1881]
Androgen receptor [3]
  radioligand of the AR binding assay; also out-competes ARCC-4 in VCaP cells: AR radioligand binding assay to determine the IC50 values for inhibiting binding between AR and (^3H) R1881

## CC1(C)C(=O)N(c2ccc(C#N)c(C(F)(F)F)c2)C(=S)N1CCCC(=O)NCCOCCOC(=O)CC12CC3CC(CC(C3)C1)C2 [SARD279]
Androgen receptor [4]
  DC50: 1100 nM

Source: article PMC6123676, “Androgen receptor degradation by the proteolysis-targeting chimera ARCC-4 outperforms enzalutamide in cellular models of prostate cancer drug resistance” (Communications Biology, 2018)
